Target: Cyclin-dependent kinase 6/G1/S-specific cyclin-D3 (Homo sapiens, UniProt Q00534)
Test: Biological Assay
Experimental: CDK6/Cyclin D3: The purpose of the CDK6/Cyclin D3 assay is to evaluate the inhibition (% inhibition, Kiapp and Ki values) in the presence of small molecule inhibitors by using a fluorescence based microfluidic mobility shift assay. […] The mobility shift assay electrophoretically separates the fluorescently labeled peptides (substrate and phosphorylated product) following the kinase reaction. Both substrate and product are measured and the ratio of these values is used to generate % conversion of substrate to product by the LabChip EZ Reader.

Chain of Cyclin-dependent kinase 6/G1/S-specific cyclin-D3 (Q00534 whole entry): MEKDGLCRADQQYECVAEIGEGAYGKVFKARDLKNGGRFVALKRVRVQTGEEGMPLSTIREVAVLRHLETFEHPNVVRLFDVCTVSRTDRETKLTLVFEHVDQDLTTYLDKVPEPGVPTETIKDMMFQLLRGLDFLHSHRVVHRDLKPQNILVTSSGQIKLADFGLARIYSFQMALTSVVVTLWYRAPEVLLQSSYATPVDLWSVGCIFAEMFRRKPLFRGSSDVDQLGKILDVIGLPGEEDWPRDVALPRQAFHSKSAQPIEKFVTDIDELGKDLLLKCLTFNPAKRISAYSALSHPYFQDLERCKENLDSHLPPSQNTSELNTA
Chain of Cyclin-dependent kinase 6/G1/S-specific cyclin-D3 (P30281 whole entry, further chain): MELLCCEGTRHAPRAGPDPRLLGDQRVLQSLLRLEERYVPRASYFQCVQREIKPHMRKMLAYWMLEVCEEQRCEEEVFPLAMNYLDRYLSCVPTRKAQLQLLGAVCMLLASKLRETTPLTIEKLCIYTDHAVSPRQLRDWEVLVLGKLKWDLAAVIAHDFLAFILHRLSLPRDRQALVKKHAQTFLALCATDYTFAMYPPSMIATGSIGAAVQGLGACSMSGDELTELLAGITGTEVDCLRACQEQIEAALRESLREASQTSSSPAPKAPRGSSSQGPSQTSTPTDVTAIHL

Ki: 1.4 nM
Structure (SMILES): Cc1nc2c(F)cc(-c3cc(N[C@@H]4CCN(S(C)(=O)=O)C[C@H]4O)ncc3Cl)cc2n1C(C)C [US10766884, Example E01]

Source: BindingDB's records for patent US10766884 (Pfizer Inc., 2020)
